The values that follow come from ChEMBL document CHEMBL4513145, “CO-ADD screening of Biotechnology Research Centre (C.R.B.t) (Algeria) compounds”.

Each structure is given as a SMILES string. Values after ≈ are worked out from the molar mass of the structure shown. A value given as a limit tells only on which side of the number the result lay.

In test [1] the test system is Escherichia coli. The test can be described thus: microbe, parasite or virus in culture. Particulars: ATCC 25922, 18 h, ASSAY_TEST Inhibition of Bacterial Growth, detection method Absorption (OD600), MEDIA CAMHB, plate type 384well, NBS, CORNING #3640.
Description: Antibacterial activity against Escherichia coli ATCC 25922 (CO-ADD:GN_001); MIC in CAMBH media using NBS plates, by OD(600)
Test [2] has as its system Cryptococcus neoformans.
Description: Antifungal activity against Cryptococcus neoformans H99 ATCC 208821 (CO-ADD:FG_002); MIC in YNB media using NBS plates, by Resazurin OD(600-570)
For test [3], the system named is Candida albicans. Briefly: microbe, parasite or virus in culture. The settings on record: ATCC 90028, ASSAY_TEST Inhibition of Fungal Growth, detection method Absorption (OD530), plate type 384well, NBS, CORNING #3640.
Description: Antifungal activity against Candida albicans ATCC 90028 (CO-ADD:FG_001); MIC in YNB media using NBS plates, by OD630
The subject of test [4] is Pseudomonas aeruginosa. The test can be described thus: microbe, parasite or virus in culture. Particulars: ATCC 27853, 18 h, ASSAY_TEST Inhibition of Bacterial Growth, detection method Absorption (OD600), MEDIA CAMHB, plate type 384well, NBS, CORNING #3640.
Description: Antibacterial activity against Pseudomonas aeruginosa ATCC 27853 (CO-ADD:GN_042); MIC in CAMBH media using NBS plates, by OD(600)
The test system of test [5] is Klebsiella pneumoniae. The test can be described thus: microbe, parasite or virus in culture. Particulars: ATCC 700603, 18 h, ASSAY_TEST Inhibition of Bacterial Growth, detection method Absorption (OD600), MEDIA CAMHB, plate type 384well, NBS, CORNING #3640.
Description: Antibacterial activity against Klebsiella pneumoniae MDR ATCC 70063 (CO-ADD:GN_003); MIC in CAMBH media using NBS plates, by OD(600)
For test [6], the system named is Acinetobacter baumannii. The test can be described thus: microbe, parasite or virus in culture. Particulars: ATCC 19606, 18 h, ASSAY_TEST Inhibition of Bacterial Growth, detection method Absorption (OD600), MEDIA CAMHB, plate type 384well, NBS, CORNING #3640.
Description: Antibacterial activity against Acinetobacter baumannii ATCC 19606 (CO-ADD:GN_034); MIC in CAMBH media using NBS plates, by OD600
For test [7], the system named is HEK293. Briefly: cells. In kind it is functional. Particulars: Homo sapiens, ATCC CRL1573, HEK293; ASSAY_TEST Inhibition of Cell Viability; detection method Resazurin; Fluorescence (ex560/em590); MEDIA DMEM with 10% FBS; plate type 384well; TC; CORNING #3712; time 18 hr. Background: The colour change of resazurin is a common sign of viable cells or microbes.
For test [8], the system named is Staphylococcus aureus. Briefly: microbe, parasite or virus in culture. Particulars: ATCC 43300, 18 h, ASSAY_TEST Inhibition of Bacterial Growth, detection method Absorption (OD600), MEDIA CAMHB, plate type 384well, NBS, CORNING #3640.
Description: Antibacterial activity against Staphylococcus aureus MRSA ATCC 43300 (CO-ADD:GP_020); MIC in CAMBH media, using NBS plates, by OD(600)

As for `O=C(OCc1ccccc1)N1CC(Cc2ccccc2)C(O)O1` (stereo not given), the MIC in test [1], in test [2], in test [3], in test [4], in test [5] and in test [6] was more than 32 µg/mL throughout. In addition, the MIC in test [8] was more than 32 µg/mL. Further, the CC50 (in general, the concentration giving 50% cytotoxicity) in test [7] is more than 32 µg/mL.

As to `CC1CN(S(=O)(=O)c2ccc([N+](=O)[O-])cc2)N(C(=O)OC(C)(C)C)C1=O` (stereo not given), the MIC in test [1], in test [2], in test [3], in test [4], in test [5] and in test [6] was more than 32 µg/mL in each case. The same molecule showed an MIC in test [8] of 32 µg/mL (≈ 83 µM). The CC50 in test [7] worked out at 6.8 µg/mL (≈ 17.6 µM).

Turning to `CCCCCCCC1CN(C(=O)OCc2ccccc2)OC1O` (stereo not given), the MIC in test [1], in test [2], in test [3], in test [4], in test [5] and in test [6] was more than 32 µg/mL in each case. Further, the MIC in test [8] was more than 32 µg/mL. The CC50 in test [7] was more than 32 µg/mL.

As to `CC1CN(C(=O)OCc2ccccc2)OC1O` (stereo not given), the MIC in test [1] is more than 32 µg/mL; in test [2], 32 µg/mL (≈ 135 µM); in test [3], more than 32 µg/mL; in test [4] it was more than 32 µg/mL; in test [5], more than 32 µg/mL; in test [6], more than 32 µg/mL. The molecule also had an MIC in test [8] of more than 32 µg/mL. In test [7], this molecule returned a CC50 of more than 32 µg/mL.

For the molecule `CC1CN(S(=O)(=O)c2ccc([N+](=O)[O-])cc2)N(C(=O)OC(C)(C)C)C1O` (stereo not given), the MIC in test [1], in test [2], in test [3], in test [4], in test [5] and in test [6] was more than 32 µg/mL in each case. Besides, the MIC in test [8] was more than 32 µg/mL. This molecule also returned a CC50 in test [7] of 6.19 µg/mL (≈ 16 µM).
